Data taken from publication PMC2560999, “A-Type GABA Receptor as a Central Target of TRPM8 Agonist Menthol” (PLoS ONE, 2008).

System: T1, GABAA receptor (GABAAR), native, cultured rat hippocampal neurons
T1 construct: gene Gabra1; native receptors of unresolved subunit composition in primary cultured hippocampal neurons (12-16 DIV for firing recordings)
Experiment: whole-cell patch clamp, peak current
Assay type: cell-based
Conditions: direct activation without GABA; holding potential −50 mV; pH 7.3

CC(C)[C@@H]1CC[C@@H](C)C[C@H]1O [menthol]
EC50: 490 µM
